For series [1], the system named is clonic convulsions induced by pentylenetetrazol (PTZ). The series can be described thus: PTZ clonic convulsions. As to conditions: female NMRI mice; for ED100: i.v., dose increasing the PTZ threshold to 100 mg PTZ/kg (linear regression); for ptz threshold at 30 mg/kg: test substance 30 mg/kg i.v., PTZ infused after 5 min, vehicle threshold 37-39 mg PTZ/kg. It is filed as in vivo. As for the experimental part: The purpose of this test is to show antagonism of clonic convulsions induced by pentylenetetrazol (PTZ). PTZ induces clonic convulsions in mice after i.v. infusion. Antagonism of PTZ-induced convulsions is a measure for the agonistic character of ligands for the benzodiazepine recognition site.
Female NMRI mice (Bomholdtgaard, Ry), 20 g, 6 mice in each group are administered i.v. with vehicle or test substance. After five minutes the PTZ-solution is infused intravenously at a speed of 0.7 ml/minute through a cannula placed in the tail vein. The time from initiation of the infusion to appearance of clonic convulsions is recorded.
The dose of PTZ required for inducing convulsion in each mouse is calculated as PTZ/kg body weight. Means ±sd for each experimental group of 6 mice is calculated. ED100 is calculated by linear regression expressing the dose increasing the PTZ threshold to 100 mg PTZ/kg.
The threshold of vehicle treated controls is in the range of 37-39 mg PTZ/kg. As a control in each series of experiments PTZ is infused into 6 vehicle treated mice.

For series [2], the target named is benzodiazepine receptor (GABAA receptor complex), cerebral cortex membranes. The series can be described thus: In vitro inhibition of 3H-flunitrazepam (3H-FNM) binding. As to conditions: inhibition of specific 3H-FNM (1 nM) binding, rat cerebral cortex membranes. As to the method: The GABA recognition site and the benzodiazepine modulatory unit can selectively be labelled with ^3H-muscimol and ^3H-flunitrazepam, respectively.
13A: In vitro inhibition of ^3H-flunitrazepam (^3H-FNM) binding
Preparations are performed at 0-4° C. unless otherwise indicated. Cerebral cortex from male Wistar rats (150-200 g) is homogenised for 5-10 sec in 20 ml Tris-HCl (30 mM, pH 7.4) using an Ultra-Turrax homogeniser. The suspension is centrifuged at 27,000× g for 15 min and the pellet is washed three times with buffer (centrifuged at 27,000× g for 10 min). The washed pellet is homogenized in 20 ml of buffer and incubated on a water bath (37° C.) for 30 min to remove endogenous GABA and then centrifuged for 10 min at 27,000× g. The pellet is then homogenized in buffer and centrifuged for 10 min at 27,000× g. The final pellet is resuspended in 30 ml buffer and the preparation is frozen and stored at −20° C.
The membrane preparation is thawed and centrifuged at 2° C. for 10 min at 27,000× g. The pellet is washed twice with 20 ml 50 mM Tris-citrate, pH 7.1 using an Ultra-Turrax homogeniser and centrifuged for 10 min at 27,000× g. The final pellet is resuspended in 50 mM Tris-citrate, pH 7.1 (500 ml buffer per g of original tissue), and then used for binding assays. Aliquots of 0.5 ml tissue are added to 25 μl of test solution and 25 μl of ^3H-FNM (1 nM, final concentration), mixed and incubated for 40 min at 2° C., Non-specific binding is determined using Clonazepam (1 μM, final concentration). After incubation the samples are added 5 ml of ice-cold buffer and poured directly onto Whatman GFIC glass fibre filters under suction and immediately washed with 5 ml ice-cold buffer. The amount of radioactivity on the filters is determined by conventional liquid scintillation counting. Specific binding is total binding minus non-specific binding.
The test value will be given as IC50 (the concentration (μM) of the test substance which inhibits the specific binding of ^3H-FNM by 50%). [formula]
Co is specific binding in control assays, and
Cx is the specific binding in the test assay.
(The calculations assume normal mass-action kinetics).

Series [3] has as its system GABAA receptor-ion channel complex (forebrain). The series can be described thus: In vivo inhibition of 3H-FNM binding. The arrangement: species or system mouse. As to conditions: female NMRI mice, test substance i.v., inhibition of specific [3H]FNM binding in forebrain. As for the experimental part:
13B: In vivo inhibition of ^3H-FNM binding
[^3H]FNM can also be used for in vivo receptor labelling studies in mouse. Accumulation of [^3H]FNM binding will occur all over the brain as GABAA receptors are widely distributed.
All test substances used are solutions prepared in 10% TWEEN 80. Groups of three female NMRI mice (25 g) are injected i.v. via the tail vein with 5.0 μCi of [3H]FNM in 0.2 ml saline. Fifteen min after injection with [^3H]FNM the test substance is administered i.v. Twenty min after injection with [^3H]FNM, mice are killed by decapitation, the forebrains rapidly excised and homogenized in 12 ml of ice-cold 50 mM Tris-citrate, pH 7.1 using an Ultra-Turrax homogenizer. Three aliquots of 1 ml are immediately filtered through GF/C glass fibre filters and washed with 2×5 ml of ice-cold buffer. The amounts of radioactivity on the filters and in 200 μl of the homogenate are determined by conventional scintillation counting. Groups of untreated mice serves as controls. To determine non-specific binding groups of mice are injected with Clonazepam (25 mg/kg) i.p. 10 min before [3H]FNM injection. Specific binding is the amount of binding in controls minus the amount of binding in Clonazepam treated mice.
The ED50 value is determined from dose response curves. […] [formula]
where Co is specific binding in controls and Cx is the specific binding in mice treated with test substance.

Where a name gives a salt, the structure may show the parent alone.

As usually defined, the melting point is the temperature, or range, at which the solid turns liquid. Broadly, the IC50 is the concentration needed to halve the response being measured. Low readings indicate inhibition by little substance, high ones a need for much substance.

In turn, `COCCOC(=O)c1ccc2c(c1)ncn2-c1cccc(N2CCN(CC(=O)O)CC2)c1` gave a melting point of 105 to 110 °C.
Take `CSCCOC(=O)c1ccc2c(c1)ncn2-c1cccc(N2CCN(C)CC2)c1`: the melting point is 121 to 122 °C.
Still for that read-out and setting: with `CN(C)CCOC(=O)c1ccc2c(c1)ncn2-c1cccc(N2CCN(CC(=O)O)CC2)c1` the figure was 47 °C (dec.).
`COC(=O)c1ccc2c(c1)ncn2-c1cccc(N2CCN(CC#N)CC2)c1` showed a melting point of 160 to 162 °C.
The same measure, in the same setting: in the case of `COCCOC(=O)c1ccc2c(c1)ncn2-c1cccc(N2CCN(CC#N)CC2)c1` it was 91 to 93 °C.
Take `CC(C)(C)OC(=O)CN1CCN(c2cccc(-n3cnc4cc(-c5ccoc5)ccc43)c2)CC1`: the melting point is 131 to 132 °C.
On to `CCOC(=O)CN1C(C)CN(c2cccc(-n3cnc4cc(C(=O)OCCOC)ccc43)c2)CC1C` (stereo not drawn) (as salt: HCl), for which the melting point is 90 to 94 °C.
On the same count and under the same terms, with `COCCOC(=O)c1ccc2c(c1)ncn2-c1cccc(-n2cnc(C(=O)OC)c2)c1` (as salt: HCl) the figure was 132 to 134 °C; with `O=C(OCCO)c1ccc2c(c1)ncn2-c1cccc(N2CCN(CCO)CC2)c1` (as salt: HCl), 182 to 192 °C; with `CCN1C(C)CN(c2cccc(-n3cnc4cc(C(=O)OCCOC)ccc43)c2)CC1C` (stereo not drawn) (as salt: HCl), 202 to 208 °C.
Same read-out and setting: in the case of `CCN1CC=C(c2cccc(-n3cnc4cc(C(=O)OCCOC)ccc43)c2)CC1` (as salt: HCl) it was 179 to 180 °C; in that of `COCCOC(=O)c1ccc2c(c1)ncn2-c1cccc(C2CCN(C)CC2)c1` (as salt: HCl), 123 to 125 °C.
On the same count and under the same terms, in the case of `COCCOC(=O)c1ccc2c(c1)ncn2-c1cccc(C2CCN(C(C)=O)CC2)c1` (as salt: HCl) it was 139 to 140 °C; in that of `COC(=O)c1ccc2c(c1)ncn2-c1cccc(N2CCNCC2)c1` (as salt: HCl), 179 to 202 °C.
As to `COCCOC(=O)c1ccc2c(c1)ncn2-c1cccc(N2CCN(CC(=O)OC(C)(C)C)CC2)c1` (as salt: HCl), the melting point lay in the range of 218 to 224 °C.
The same measure, in the same setting: in the case of `COCCOC(=O)c1ccc2c(c1)ncn2-c1cccc(N2CCNCC2)c1` (as salt: HCl) it was 191 to 205 °C.
Molecule `COCCOC(=O)c1ccc2c(c1)ncn2-c1cccc(N2CCN(CC(=O)OC(C)C)CC2)c1` (as salt: HCl) yielded a melting point of 155 to 159 °C.
The molecule `COC(=O)c1ccc2c(c1)ncn2-c1cccc(N2CCN(CC(=O)O)CC2)c1` (as salt: HCl) showed a melting point of 210 to 220 °C.
In turn, `COCCOC(=O)c1ccc2c(c1)ncn2-c1cccc(N2CCN(Cc3ccc(Cl)s3)CC2)c1` (as salt: HCl) returned a melting point of 185 to 186 °C.
With `CN1CCN(c2cccc(-n3cnc4cc(C(=O)OCCO)ccc43)c2)CC1` (as salt: HCl), the melting point lay in the range of 128 to 139 °C.
For `COC(=O)CN1CCN(c2cccc(-n3cnc4cc(C(=O)OCCO)ccc43)c2)CC1` (as salt: HCl), the melting point was in the range of 150 to 155 °C.
Turning to `CCOC(=O)CN1CCN(c2cccc(-n3cnc4cc(C(=O)OCCO)ccc43)c2)CC1` (as salt: HCl), the melting point was 103 to 125 °C.
Same read-out and setting: with `CCN(CC)C(=O)CN1CCN(c2cccc(-n3cnc4cc(C(=O)OCCOC)ccc43)c2)CC1` (as salt: HCl) the figure was 202 to 204 °C.
`COCCOC(=O)c1ccc2c(c1)ncn2-c1cccc(N2CCN(Cc3ccccc3)CC2)c1` (as salt: HCl) displayed a melting point of 172 to 177 °C.
On the same count and under the same terms, in the case of `COCCOC(=O)c1ccc2c(c1)ncn2-c1cccc(N2CCN(CC(=O)OC)CC2)c1` (as salt: HCl) it was 161 to 164 °C.
Take `COCCOC(=O)c1ccc2c(c1)ncn2-c1cccc(N2CCN(CC(N)=O)CC2)c1` (as salt: HCl): the melting point was in the range of 211 to 212 °C.
Take `NC(=O)CN1CCN(c2cccc(-n3cnc4cc(C(=O)OCCO)ccc43)c2)CC1` (as salt: HCl): the melting point lay within 268 to 270 °C.
The same measure, in the same setting: in the case of `COC(=O)c1ccc2c(c1)ncn2-c1cccc(N2CCN(Cc3ccccc3)CC2)c1` (as salt: HCl) it was 153 to 163 °C.
On the same count and under the same terms, with `CCN(CC)C(=O)CN1CCN(c2cccc(-n3cnc4cc(C(=O)OCCO)ccc43)c2)CC1` (as salt: HCl) the figure was 149 to 154 °C; with `COCCOC(=O)c1ccc2c(c1)ncn2-c1cccc(N2CCN(CCOCc3ccccc3)CC2)c1` (as salt: HCl), 139 to 141 °C.
In turn, `COCCOC(=O)c1ccc2c(c1)ncn2-c1cccc(N2CCN(Cc3nnnn3C)CC2)c1` (as salt: HCl) yielded a melting point of 196 to 198 °C.
The same measure, in the same setting: in the case of `CCN1CCN(c2cccc(-n3cnc4cc(C(=O)OCCOC)ccc43)c2)CC1` (as salt: HCl) it was 166 to 168 °C; in that of `CCOC(=O)N1CCN(Cc2cccc(-n3cnc4cc(-c5ccoc5)ccc43)c2)CC1` (as salt: HCl), 248 to 250 °C.
Take `CN1CCCC1COC(=O)c1cccc(-n2cnc3cc(-c4ccoc4)ccc32)c1` (stereo not drawn) (as salt: HCl): the melting point was in the range of 198 to 200 °C.
In the case of `CCOC(=O)CN1CCN(c2cccc(-n3cnc4cc(C(=O)OCCOC)ccc43)c2)CC1` (as salt: HCl) [Compound 1b, 2-Methoxyethyl 1-(3-(4-(ethoxy-carbonyl-methyl)-1-piperazinyl)-phenyl)-benzimidazole-5-carboxylate], the melting point is 161 to 163 °C.
The same measure, in the same setting: with `CC(=O)N1CCN(CCOC(=O)c2cccc(-n3cnc4cc(-c5ccoc5)ccc43)c2)CC1` (as salt: HCl) [Compound 7j, 2-(1-Acetyl-4-piperazinyl)-ethyl 3-(5-(3-furanyl)-1-benzimidazolyl)-benzoate] the figure was 167 to 168 °C; with `COCCOC(=O)c1ccc2c(c1)ncn2-c1cccc(N2CCN(C)CC2)c1` (as salt: maleate), 136 to 137 °C.
Consider `COC(=O)c1ccc2c(c1)ncn2-c1cccc(Cn2ccnc2)c1` [Compound 1l, Methyl 1-(3-(1-imidazolylmethyl)-phenyl)-benzimidazole-5-carboxylate], for which, in series [1], the ED100 was 17 mg/kg and the “ptz threshold at 30 mg/kg” value was 120 mg/kg. In addition, the IC50 in series [2] is 12 nM. For the same molecule, the “In vivo binding ED50” value in series [3] is listed as 0.75 mg/kg.
With `CCOC(=O)CN1CCN(Cc2cccc(-n3cnc4cc(-c5ccoc5)ccc43)c2)CC1` [Compound 7f, 5-(3-Furanyl)-1-(3-(1-ethoxycarbonylmethyl-4-piperazinylmethyl)-phenyl)-benzimidazole], in series [1], the ED100 is listed as 2.7 mg/kg and the “ptz threshold at 30 mg/kg” value came out at 120 mg/kg. This molecule came in with an IC50 in series [2] of 0.6 nM. The “In vivo binding ED50” value in series [3] is reported as 0.17 mg/kg.

(Values after patent US6649609B2, “Benzimidazole derivatives and pharmaceutical compositions comprising these compounds” (Neurosearch A/S, priority 1999, dated 2003).)
